For data set [1], the system named is SU-DHL-4. Format: cell-based. The note with it: SU-DHL-4 cells, 48 hours. The protocol: (§1) Briefly, human Burkitt lymphoma (Raji) and DLBCL (SU-DHL-4) cell lines were used as target cells. Cells were cultured in culture medium (RPMI 1640 with HEPES and L-Glutamine supplemented with 10% heat-inactivated donor bovine serum with iron, and 1% [v/v] penicillin/streptomycin) to which 2 mM L-glutamine and 1 mM sodium pyruvate were added, at 37° C., 5% CO2. T cells, isolated from human healthy donor buffy coats (Sanquin) by negative selection using the RosetteSep™ Human T Cell Enrichment Cocktail (Stemcell Technologies), followed by density centrifugation over a Ficoll gradient, both according to the manufacturer's instructions, were used as effector cells. Isolated cells were washed twice in phosphate buffered saline (PBS) and counted using acridine orange/propidium iodide (AO/PI) viability staining solution (Nexcelom Bioscience) on a Cellometer® Auto 2000 Cell Viability Counter. […] B-cell viability and T-cell activation were measured by flow cytometry (count of CD22-positive cells; expression of the T-cell activation markers CD69, CD25, programmed cell death protein 1 (PD-1), and CD107 [lysosomal associated membrane protein 1; LAMP-1] on CD4+ and CD8+ T cells). Absolute cell numbers were determined by adding Accucheck Counting beads (100 μL/well) (Thermofisher) and calculated as follows:
(§2) Correction factor=([bead count1+bead count2]/average bead countplate)
(§3) Absolute cell number=[cell countsample/correction factor] • The percentage cytotoxicity was calculated as follows:
(§4) % cytotoxicity=100−([absolute cell numbersample/absolute cell numberno antibody]×100%)

For data set [2], the system named is Raji. Format: cell-based. The settings on record: 48 hours. How it is done:
as §1, §2, §3, §4

In data set [3] the test system is Raji. The experiment in a line: in vitro T-cell activation assay, T cells incubated with Raji cells. The note with it: Raji target cells, 48 hours. Format: cell-based, human. How it is done: as §1, with “follows: […]” for “follows:”
Data set [4] concerns SU-DHL-4. Description: in vitro T-cell activation assay, T cells incubated with SU-DHL-4 cells. The settings on record: SU-DHL-4 target cells, 48 hours. The data set is classed as cell-based, human. The protocol: as §1, with “follows: […]” for “follows:”
Another data set has as its system R/R B-NHL. The experiment in a line: ongoing clinical trial of epcoritamab monotherapy (NCT03625037). The data set is classed as in vivo. From the text:
Epcoritamab as monotherapy is currently in a clinical trial for the treatment of relapsed/refractory (R/R) B-NHL (ClinicalTrials.gov Identifier: NCT03625037).

[5] abbreviates: gemcitabine and/or oxaliplatin at EC30 concentrations, with or without epcoritamab.
Setting [6] is: epcoritamab alone 0.01 pg/mL-100 ng/mL.
Setting [7] is: epcoritamab 0.01 pg/mL-100 ng/mL, flow cytometry.
The mark [8] stands for this setting: gemcitabine 1 nM, oxaliplatin 0.3 μM.

Consider two molecules from US20220112309A1, “BISPECIFIC ANTIBODY AGAINST CD3 AND CD20 IN COMBINATION THERAPY FOR TREATING DIFFUSE LARGE B-CELL LYMPHOMA” (GENMAB A/S, priority 2020, published 2022).

Take `Nc1ccn(C2OC(CO)C(O)C2(F)F)c(=O)n1` (stereo not shown) [gemcitabine, 4-amino-1-[3,3-difluoro-4-hydroxy-5-(hydroxymethyl)oxolan-2-yl]-1,2-dihydropyrimidin-2-one, reference compound]: the “cytotoxicity of B cells” value with SU-DHL-4 [1] (setting [5]) and in the data set on Raji [2] (setting [5]) was “induced cytotoxicity of B cells” throughout.
As to “epcoritamab: IgG1 bispecific CD3xCD20 antibody; heavy and light chain pairs of SEQ ID NOs: 24 and 25, and 26 and 27; CAS 2134641-34-0”, the “T-cell-mediated cytotoxicity (decrease in the number of viable B cells)” value in the data set on SU-DHL-4 [1] (setting [6]) and in the data set on Raji [2] (setting [6]) was “concentration-dependent T-cell-mediated cytotoxicity” in each case. For the same molecule, the “T-cell activation (upregulation of CD69, CD25, PD-1, and LAMP-1 expression)” value was “concentration-dependent activation of both CD4+ (data not shown) and CD8+ T cells” with Raji [3] (setting [7]); “concentration-dependent activation of both CD4+ (data not shown) and CD8+ T cells” in the data set on SU-DHL-4 [4] (setting [7]). The “Epcoritamab-induced T-cell activation in the presence of gemcitabine, oxaliplatin, or the combination” value in the data set on Raji [3] (setting [8]) and in the data set on SU-DHL-4 [4] (setting [8]) was “not affected” each time. In addition, in the data set with R/R B-NHL (human, in vivo), the dose-limiting toxicities result was “no dose-limiting toxicities reported”. Further, the tolerated dose entry in the data set on R/R B-NHL (monotherapy, R/R B-NHL patients, preliminary data) is given as “tolerated at doses up to at least 48 mg, including 60 mg”.
